PMC5469503 (PLoS Pathogens, 2017)

How the values were obtained:
[1] = molecular target: T1, V1 subcomplex of the V-ATPase (Saccharomyces cerevisiae, UniProt P16140+P17255); test: fluorescence titration (TNP-ATP emission); details: pH 7.9, 10.0 °C, 25 mM Tris-HCl, 0.15 M NaCl, 1 mM MgCl2, 0.5 mM DTT, 0.25 μM V1; nucleotide site
T1 construct: gene VMA1

[2] = molecular target: V-ATPase from S. cerevisiae, intact, detergent solubilized (A3B3CDE3FG3Hac8c'c''def), 3xFLAG on the A-subunit (S. cerevisiae) (UniProt P16140); test: cryo-EM structure

| Substance | Kd [1] [nM] | stoichiometry N [2] |
| --- | --- | --- |
| 2',3'-O-(2,4,6-trinitrophenyl) adenosine 5'-triphosphate [TNP-ATP] | 160 ± 50 |  |
| SidK, full length (residues 1 to 573) (natural protein) |  | 3 |
